Laboratory results as given in US20260356849A1, “COMPOUNDS AND METHODS FOR TREATING CANCERS” (CEDARS-SINAI MEDICAL CENTER, priority 2022, published 2026).
“Also recorded” adds a separate entry of the source.

What was measured:
MEK and ERK activity [1] = assay: Western blot ERK and MEK activity in AML12 cells; type: cell-based; details: 2-10 μM, 24 hours
[2] = tested on: non-malignant (HEK293, AML12) cells; assay: EdU/MTT growth assay in non-malignant cells; type: cell-based; details: 10 μM, 24 hours
Description: The inventors identified nine inhibitors and perfomed an EdU assay after treating non-malignant (HEK293, AML12) and malignant (HepG2, MzChA-1, HT-29, RKO) cells with varying concentrations of GIT1 inhibitor for 24 hours (results are mean±SE from 3 independent experiments done in duplicates, *p<0.05 vs. DMSO). An MTT assay was also performed after treating primary human and mouse hepatocytes and liver and colon cancer cells with varying concentrations of GIT1 inhibitor for 24 hours (results are mean±SE from 3 independent experiments done in duplicates, *p<0.05 vs. DMSO). […] Percoll may be used to remove dead human hepatocytes.

HepG2 cells [3] = assay: Clonogenic assay HepG2; type: cell-based; details: 1 μM, 24 hours then drug free medium 10-20 days; dose dependent
Description: (§1) RKO, HepG2, and AML12 cells were treated with 1-10 μM compound C3 for 24 hours and maintained in drug free medium for 10-20 days.

[4] = tested on: MEK1/2 interaction with GIT1, Raf, and ERK; assay: Co-IP anti-MEK1/2 in HepG2 and RKO cells; type: cell-based; details: 10 μM, 24 hours
From the text: GIT1-MAT2B scaffold complex sequesters and activates RAS/RAF/MEK/ERK signaling.

HepG2 cells [5] = assay: Cell cycle flow cytometry HepG2; type: cell-based; details: 1-5 μM, 24 hours
MC38 cells = assay: MC38 CRC liver metastasis (CRLM) model in immune competent mice; type: in vivo
Description: FIG. 40A-FIG. 40E depicts, in accordance with various embodiments of the invention, compound C3 inhibits CRC liver metastasis in immune competent mice. MC38 cells (2.5×10^5) stably expressing luciferase where injected intrasplenically followed by splenectomy. 7 days later compound C3 (20 mg/kg on day 1 sinc MC38 grows rapidly, then 15 mg/kg daily×3 days, rest for 2 days, then 15 mg/kg×2 days) or DMSO were given ip. Small animal imaging (FIG. 40A). H&E of tumors (FIG. 40B). Luciferase intensity at various time points (FIG. 40C). Gross pictures of the livers at day 9 (FIG. 40D), ALT and AST levels after above, or compound C3 (15 mg/kg/d for 21 days), *p<0.05 vs. DMSO (FIG. 40E).
Compound C3 powder was dissolved in pure DMSO at 50 mg/ml, as a stock store in-80 °C. Stock solution was dissolved in 200 μl 0.9% saline to reach 15 mg/kg. For control group, DMSO was dissolved in 200 μl saline to achieve a concentration of DMSO in saline of 4.5%. MC38 cells (2.5×105) stably expressing luciferase were injected intrasplenically followed by splenectomy (CRLM model). Seven days later, Compound C3 (20 mg/kg on day 1, then 15 mg/kg daily ×3 days, rest for 2 days, then 15 mg/kg×2 days) or DMSO were administered ip.

RKO cells [6] = assay: Annexin V-FITC/propidium iodide assay RKO; type: cell-based, human; details: 5 μM, 24-48 hours
Description: (§2) FIG. 8 depicts, in accordance with various embodiments of the invention, results of an annexin V-FITC/propidium iodide binding assay performed in human and mouse hepatocytes, AML12, HEK293, HepG2, and RKO cells after treatment with 5 μM of a GIT1 inhibitor or DMSO for 24-48 hours (results are shown as mean±SE from at least 3 experiments. *p<0.05 vs. DMSO).
(§3) An annexin V-FITC/propidium iodide (PI) binding assay was performed with flow cytometry. […] Both G2/M arrest and cell death are mechanisms by which compound C3 inhibits cancer cells' growth.

GIT2-GFP = GIT2-GFP (Homo sapiens, UniProt Q14161); assay: MST binding to GIT2-GFP
RKO cells [7] = assay: Clonogenic assay RKO; type: cell-based, human; details: 1 μM, 24 hours then drug free medium 10-20 days; dose dependent
Description: as §1

MEK and ERK activity [8] = assay: MEK and ERK activity in human hepatocytes; type: cell-based; details: 10 μM
Description: (§4) Treatment of human hepatocytes with 10 μM compound C3 had no effect on MEK or ERK activity.

MEK and ERK activity [9] = assay: Western blot ERK and MEK activity in HepG2 cells; type: cell-based; details: 2-10 μM, 24 hours
Description: as §4

AML12 cells [10] = assay: Clonogenic assay AML12; type: cell-based; details: 1-10 μM, 24 hours then drug free medium 10-20 days
Description: as §1

MEK and ERK activity [11] = assay: Western blot ERK and MEK activity in MC38 cells; type: cell-based; details: 10 μM, 24 hours
CyclinB1 = assay: Cyclin B1 expression by RT-PCR, Western blotting and CHX in HepG2; type: cell-based
Description: HepG2 cells were treated with DMSO or compound C3 (2-5 μM) for 24 hours. […] Numbers shown below are mean±SE densitometric values.

GIT1 = GIT1 dependence of cyclin B1 and EdU effects; type: cell-based
Cyclin D1 = Cyclin D1 protein level in cancer cells; type: cell-based; details: 10 μM, 24 hours
[12] = tested on: CRC organoids from AKPS mice; assay: EdU assay of CRC organoids; type: cell-based; details: "10M", 24 hours
Description: An EdU assay of CRC organoids from AKPS mice (APCF/Fp53F/FKRAS+SMAD4KOCDX2ERT+) was treated with […] of compound C3 for 24 hours.

AML12 cells [13] = assay: Cell cycle flow cytometry AML12; type: cell-based; details: 1-5 μM, 24 hours
Toxicity in C57/BL6 mice = details: mouse, in vivo
M2 macrophages (CD206+) = assay: Flow cytometry of macrophages in CRLM tumors; type: in vivo, mice
From the text: Liver tumors from CRLM model in syngeneic mice were processed for flow cytometry. […] In this subgroup, CD206+ was used to identify M2 macrophages.

AML12 cells [14] = assay: Annexin V-FITC/propidium iodide assay AML12; type: cell-based; details: 5 μM, 24-48 hours
Description: as §2, §3

HEK293 cells = assay: Annexin V-FITC/propidium iodide assay HEK293; type: cell-based; details: 5 μM, 24-48 hours
Description: as §2, §3

human hepatocytes = assay: Annexin V-FITC/propidium iodide assay human hepatocytes; type: cell-based; details: 5 μM, 24-48 hours
Description: as §2, §3

GIT2-GFP, sequence (Q14161 whole entry): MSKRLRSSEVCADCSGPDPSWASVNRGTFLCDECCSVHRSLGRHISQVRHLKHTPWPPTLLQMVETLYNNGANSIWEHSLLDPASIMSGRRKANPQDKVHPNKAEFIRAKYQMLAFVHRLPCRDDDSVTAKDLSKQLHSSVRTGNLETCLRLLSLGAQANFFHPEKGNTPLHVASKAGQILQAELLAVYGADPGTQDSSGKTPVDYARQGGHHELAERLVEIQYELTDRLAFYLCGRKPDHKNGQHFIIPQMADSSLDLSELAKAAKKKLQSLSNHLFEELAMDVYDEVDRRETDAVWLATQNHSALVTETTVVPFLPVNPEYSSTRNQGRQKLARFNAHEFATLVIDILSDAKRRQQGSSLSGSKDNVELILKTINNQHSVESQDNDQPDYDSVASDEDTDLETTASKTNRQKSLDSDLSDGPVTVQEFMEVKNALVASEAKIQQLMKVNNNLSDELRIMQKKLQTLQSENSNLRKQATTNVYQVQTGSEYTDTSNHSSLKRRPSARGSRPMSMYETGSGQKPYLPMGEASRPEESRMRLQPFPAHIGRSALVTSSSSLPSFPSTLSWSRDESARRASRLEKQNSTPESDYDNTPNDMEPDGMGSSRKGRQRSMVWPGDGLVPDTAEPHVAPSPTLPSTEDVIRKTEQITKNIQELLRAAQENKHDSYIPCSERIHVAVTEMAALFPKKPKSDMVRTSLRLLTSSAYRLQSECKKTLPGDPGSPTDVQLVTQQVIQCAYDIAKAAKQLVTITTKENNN

CC1(C)Cc2nc3sc4c(=O)n(CC(=O)NCc5ccco5)cnc4c3cc2CO1 [Compound C3, 2-(8,8-Dimethyl-4-oxo-7,10-dihydro-8H-pyrano[3″,4″: 5′,6′]pyrido[3′,2′: 4,5]thieno[3,2-d]pyrimidin-3 (4H)-yl)-N-(2-furylmethyl) acetamide]
ERK and MEK activities, AML12 (MEK and ERK activity [1]): not in AML12 cells
cytotoxicity in non-malignant cells [2]: not in non-malignant cells
clonogenic potential, HepG2 (HepG2 cells [3]): inhibited the clonogenic potential
RAF/MEK/ERK recruitment [4]: reduced RAF/MEK/ERK recruitment
G2/M phase, HepG2 (HepG2 cells [5]): G2/M phase was significantly increased
percentage of cells in G1 phase, HepG2 (HepG2 cells [5]): lowered the percentage of cells in G1 phase
tumor growth, liver metastasis (MC38 cells; ip 20 mg/kg day 1, 15 mg/kg daily ×3 days, rest 2 days, 15 mg/kg×2 days): Tumor growth was inhibited
toxicity (MC38 cells; ip 20 mg/kg day 1, then 15 mg/kg, ALT and AST): without toxicity
apoptosis, RKO (RKO cells [6]): significant apoptosis
binding to GIT2-GFP (GIT2-GFP): not GIT2-GFP
clonogenic potential, RKO (RKO cells [7]): inhibited the clonogenic potential
MEK or ERK activity, human hepatocytes (MEK and ERK activity [8]): no effect
ERK and MEK activities, HepG2 (MEK and ERK activity [9]): lower
clonogenic potential, AML12 (AML12 cells [10]): no effect on clonogenic potential
ERK and MEK activities, MC38 (MEK and ERK activity [11]): lower
CyclinB1 content (CyclinB1): increases CyclinB1 content; also recorded: led to cyclin B1 accumulation
CyclinB1 mRNA level (CyclinB1; HepG2, 2-5 μM, 24 hours): increases CyclinB1 mRNA level
CyclinB1 protein degradation (CyclinB1; HepG2, cycloheximide, 5 μM): inhibits its protein degradation
CyclinB1 phosphorylation (CyclinB1; associated with nuclear accumulation): promotes CyclinB1 phosphorylation
GIT1 dependence of lower EdU (growth) (GIT1): lower EdU requires GIT1
GIT1 dependence of increase in cyclin B1 level / stabilization (GIT1; n=3): GIT1 dependent; also recorded: increase in cyclin BI level requires GIT1
Cyclin D1 protein level, cancer cells (Cyclin D1): lower in cancer cells
CRC organoid appearance [12]: does not affect appearance
CRC organoid growth [12]: inhibits CRC organoids growth
G2/M arrest, AML12 (AML12 cells [13]): did not occur
toxicity in C57/BL6 mice (Toxicity in C57/BL6 mice): no toxicity
M2 macrophages in the tumors (M2 macrophages (CD206+); CD206+, n=6 each group): dramatically reduced M2 macrophages
M1 and CD8+ T cells in the tumors (M2 macrophages (CD206+); strong indication): raised MI and CD8+ T cells
cell death, AML12 (AML12 cells [14]): does not induce cell death
cell death, HEK293 (HEK293 cells): does not induce cell death
cell death, human hepatocytes (human hepatocytes): does not induce cell death
